One assay concerns Neurospora crassa. The experiment in a line: Antifungal activity against Neurospora crassa 74-OR23-1A after 12 hrs. In kind it is functional.
The test system of another assay is MOLT-4. The experiment in a line: Cytotoxicity against human MOLT4 cells at […]. In kind it is functional.

In brackets after ≈: the same amount, converted by molar mass. Activity calls are given as the source filed them.

The MIC is the smallest concentration in the dilution series that meets the test's criterion for growth inhibition. With `CC(O)C(O)/C=C/C=C/C(=O)O[C@@H]1C=C2COC(=O)[C@]2(O)[C@@]2(C)CCCC(C)(C)[C@H]12` (stereo not given in full), in the assay with Neurospora crassa, the minimum inhibitory concentration (MIC) was determined as 162 µM (≈ 68.1 µg/mL).

In turn, `CC1(C)CCC[C@@]2(C)[C@H]1[C@H](O)C=C1COC(=O)[C@@]12O` [STROBILACTONE A] gave an MIC in the assay with Neurospora crassa of 242 µM (≈ 64.5 µg/mL). Besides, the inhibition entry in the assay on MOLT-4 was “inactive”. As for `CC1(C)OC(=O)C=C[C@]2(C)[C@@H]3C[C@@]4(C)C(=O)[C@@]5(C)C[C@@H]6C(=O)OC[C@@]64O[C@@]3(CC[C@@H]12)C5` [INSUETOLIDE A], the lowest concentration to inhibit growth in the assay with Neurospora crassa (MIC) was 140 µM (≈ 60 µg/mL). Moreover, the inhibition entry with MOLT-4 was “inactive”.

For the origin of these results see ChEMBL document CHEMBL1914322, “Novel terpenoids of the fungus Aspergillus insuetus isolated from the Mediterranean sponge Psammocinia sp. collected along the coast of Israel” (2011).
